Values after ≈ are worked out from the molar mass of the structure shown.
Tests used:
Format in all cases: cell-based
[1] = test system: Salmonella paratyphi-A 1015; experiment: Antibacterial activity, agar-dilution MIC, organism No. 10; conditions: Salmonella enterica, PARATYPHI, read-out: Minimum Inhibitory Concentration
Procedure, shortened: (§1)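 Values come from agar-dilution plates prepared with bouillon agar; they represent the least specimen concentration (μg/ml of medium) giving inhibition.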

[2] = test system: Klebsiella pneumoniae PCI-602; experiment: Antibacterial activity, agar-dilution MIC, organism No. 7; conditions: Klebsiella pneumoniae, PCI602; Organism No. 7, bouillon-agar; read-out: Minimum Inhibitory Concentration
Procedure, shortened: as §1

[3] = test system: Pseudomonas aeruginosa PAO 1; experiment: Antibacterial activity, agar-dilution MIC, organism No. 17; conditions: Pseudomonas aeruginosa, PAO1; Organism No. 17, bouillon-agar; read-out: Minimum Inhibitory Concentration
Procedure, shortened: as §1

Enterobacter cloacae 963 = experiment: Antibacterial activity, agar-dilution MIC, organism No. 24; conditions: Enterobacter cloacae, 963; Organism No. 24, bouillon-agar; read-out: Minimum Inhibitory Concentration
Procedure, shortened: as §1

[4] = test system: Aspergillus niger IFO 6342; experiment: Antifungal activity, agar-dilution MIC, organism No. 30; conditions: Aspergillus niger, IFO6342; Organism No. 30, bouillon-agar; read-out: Minimum Inhibitory Concentration
Procedure, shortened: as §1

[5] = test system: Mycoplasma pneumoniae IID817; experiment: Antimycoplasmal activity, MIC by phenol red colour change, organism No. 28; conditions: Mycoplasma, IID817; Organism No. 28, PPLO broth + 1% glucose, 37° C.; read-out: Minimum Inhibitory Concentration (MIC)
Procedure: Mycoplasma pneumoniae IID817 was used as the test microorganism in a culture medium prepared by adding 1% of glucose to "PPLO broth (manufactured by Difco Co.) liquid culture medium" at 37° C. with phenol red as an indicator, thereby culturing the test microorganism.

[6] = test system: Streptococcus faecium IFO 3826; experiment: Antibacterial activity, agar-dilution MIC, organism No. 27; conditions: Enterococcus faecium, IFO3826; Organism No. 27, bouillon-agar; read-out: Minimum Inhibitory Concentration
Procedure, shortened: as §1

[7] = test system: Pseudomonas aeruginosa IFO 3445; experiment: Antibacterial activity, agar-dilution MIC, organism No. 15; conditions: Pseudomonas aeruginosa, IFO3445; Organism No. 15, bouillon-agar; read-out: Minimum Inhibitory Concentration
Procedure, shortened: as §1

[8] = test system: Streptococcus pyogenes IFO 3340; experiment: Antibacterial activity, agar-dilution MIC, organism No. 26; conditions: Streptococcus pyogenes, IFO3340; Organism No. 26, bouillon-agar; read-out: Minimum Inhibitory Concentration
Procedure, shortened: as §1

[9] = test system: Salmonella shottmuelleri 8006; experiment: Antibacterial activity, agar-dilution MIC, organism No. 11; conditions: Salmonella, 8006; Organism No. 11, bouillon-agar; read-out: Minimum Inhibitory Concentration
Procedure, shortened: as §1

[10] = test system: Staphylococcus aureus FDA 209PJc-1; experiment: Antibacterial activity, agar-dilution MIC, organism No. 1; conditions: Staphylococcus aureus, FDA209PJC1; Organism No. 1, bouillon-agar; read-out: Minimum Inhibitory Concentration
Procedure, shortened: as §1

Proteus vulgaris HX-19 = experiment: Antibacterial activity, agar-dilution MIC, organism No. 21; conditions: Proteus vulgaris, HX19; Organism No. 21, bouillon-agar; read-out: Minimum Inhibitory Concentration
Procedure, shortened: as §1

[11] = test system: Escherichia coli K12 C600 IAM 1264; experiment: Antibacterial activity, agar-dilution MIC, organism No. 6; conditions: Escherichia coli, IAM1264; Organism No. 6, bouillon-agar; read-out: Minimum Inhibitory Concentration
Procedure, shortened: as §1

[12] = test system: Escherichia coli NIHJ-JC-2; experiment: Antibacterial activity, agar-dilution MIC, organism No. 5; conditions: Escherichia coli, NIHJJC2; Organism No. 5, bouillon-agar; read-out: Minimum Inhibitory Concentration
Procedure, shortened: as §1

[13] = test system: Salmonella typhimurium IID 971; experiment: Antibacterial activity, agar-dilution MIC, organism No. 8; conditions: Salmonella enterica; Organism No. 8, bouillon-agar; read-out: Minimum Inhibitory Concentration
Procedure, shortened: as §1

[14] = test system: Pseudomonas aeruginosa NCTC 10490; experiment: Antibacterial activity, agar-dilution MIC, organism No. 16; conditions: Pseudomonas aeruginosa, NCTC10490; Organism No. 16, bouillon-agar; read-out: Minimum Inhibitory Concentration
Procedure, shortened: as §1

[15] = test system: Serratia marcescens IAM 1184; experiment: Antibacterial activity, agar-dilution MIC, organism No. 13; conditions: Serratia marcescens, IAM1184; Organism No. 13, bouillon-agar; read-out: Minimum Inhibitory Concentration
Procedure, shortened: as §1

[16] = test system: Proteus rettgeri IFO 3850; experiment: Antibacterial activity, agar-dilution MIC, organism No. 22; conditions: Providencia rettgeri, IFO3850; Organism No. 22, bouillon-agar; read-out: Minimum Inhibitory Concentration
Procedure, shortened: as §1

[17] = test system: Salmonella enteritidis G 14; experiment: Antibacterial activity, agar-dilution MIC, organism No. 12; conditions: Salmonella enterica, ENTERITIDIS; Organism No. 12, bouillon-agar; read-out: Minimum Inhibitory Concentration
Procedure, shortened: as §1

[18] = test system: Proteus morganii IFO 3848; experiment: Antibacterial activity, agar-dilution MIC, organism No. 18; conditions: Morganella morganii, IFO3848; Organism No. 18, bouillon-agar; read-out: Minimum Inhibitory Concentration
Procedure, shortened: as §1

[19] = test system: Candida albicans IAM 4905; experiment: Antifungal activity, agar-dilution MIC, organism No. 29; conditions: Candida albicans, IAM4905; Organism No. 29, bouillon-agar; read-out: Minimum Inhibitory Concentration
Procedure, shortened: as §1

[20] = test system: Staphylococcus aureus MS 353; experiment: Antibacterial activity, agar-dilution MIC, organism No. 3; conditions: Staphylococcus aureus, MS353; Organism No. 3, bouillon-agar; read-out: Minimum Inhibitory Concentration
Procedure, shortened: as §1

[21] = test system: Staphylococcus aureus Terajima; experiment: Antibacterial activity, agar-dilution MIC, organism No. 2; conditions: Staphylococcus aureus; Organism No. 2, bouillon-agar; read-out: Minimum Inhibitory Concentration
Procedure, shortened: as §1

Proteus vulgaris OX-19 = experiment: Antibacterial activity, agar-dilution MIC, organism No. 20; conditions: Proteus vulgaris, OX19; Organism No. 20, bouillon-agar; read-out: Minimum Inhibitory Concentration
Procedure, shortened: as §1

Salmonella typhi 901 = experiment: Antibacterial activity, agar-dilution MIC, organism No. 9; conditions: Salmonella enterica, TYPHI, read-out: Minimum Inhibitory Concentration
Procedure, shortened: as §1

[22] = test system: Streptococcus pyogenes Cook; experiment: Antibacterial activity, agar-dilution MIC, organism No. 4; conditions: Streptococcus pyogenes; Organism No. 4, bouillon-agar; read-out: Minimum Inhibitory Concentration
Procedure, shortened: as §1

[23] = test system: Micrococcus luteus ATCC 9341; experiment: Antibacterial activity, agar-dilution MIC, organism No. 25; conditions: Micrococcus luteus, ATCC9341; Organism No. 25, bouillon-agar; read-out: Minimum Inhibitory Concentration
Procedure, shortened: as §1

[24] = test system: Bacillus subtilis ATCC 6633; experiment: Antibacterial activity, agar-dilution MIC, organism No. 14; conditions: Bacillus subtilis, ATCC6633; Organism No. 14, bouillon-agar; read-out: Minimum Inhibitory Concentration
Procedure, shortened: as §1

[25] = test system: Enterobacter aerogenes ATCC 13048; experiment: Antibacterial activity, agar-dilution MIC, organism No. 23; conditions: Klebsiella aerogenes, ATCC13048; Organism No. 23, bouillon-agar; read-out: Minimum Inhibitory Concentration
Procedure, shortened: as §1

[26] = test system: Proteus mirabilis IFO 3849; experiment: Antibacterial activity, agar-dilution MIC, organism No. 19; conditions: Proteus mirabilis, IFO3849; Organism No. 19, bouillon-agar; read-out: Minimum Inhibitory Concentration
Procedure, shortened: as §1

Row | SMILES | MIC [1] [µg/mL] | MIC [2] [µg/mL] | MIC [3] [µg/mL] | MIC (Enterobacter cloacae 963) [µg/mL] | MIC [4] [µg/mL] | MIC [5] [µg/mL] | MIC [6] [µg/mL] | MIC [7] [µg/mL] | MIC [8] [µg/mL] | MIC [9] [µg/mL] | MIC [10] [µg/mL] | MIC (Proteus vulgaris HX-19) [µg/mL] | MIC [11] [µg/mL] | MIC [12] [µg/mL] | MIC [13] [µg/mL] | MIC [14] [µg/mL] | MIC [15] [µg/mL] | MIC [16] [µg/mL] | MIC [17] [µg/mL] | MIC [18] [µg/mL] | further results
1 | [C-]#[N+]C12CC3(/C=C/C(=O)OCC(=O)c4ccc(Cl)cc4)OC3C1O2 (stereo not drawn) [compound 5] | < 0.05 | 6.25 (≈ 18.1 µM) | > 100 | 0.1 (≈ 0.289 µM) | 6.25 (≈ 18.1 µM) | < 0.05 | 12.5 (≈ 36.2 µM) | > 100 | 1.56 (≈ 4.51 µM) | < 0.05 | 0.05 (≈ 0.145 µM) | 0.39 (≈ 1.13 µM) | < 0.05 | 6.25 (≈ 18.1 µM) | 6.25 (≈ 18.1 µM) | > 100 | > 100 | 100 (≈ 289 µM) | 3.13 (≈ 9.05 µM) | 100 (≈ 289 µM) | MIC [19]: 1.56 µg/mL (≈ 4.51 µM); MIC [20]: 0.78 µg/mL (≈ 2.26 µM); MIC [21]: 0.78 µg/mL (≈ 2.26 µM); MIC (Proteus vulgaris OX-19): 0.39 µg/mL (≈ 1.13 µM); MIC (Salmonella typhi 901): 3.13 µg/mL (≈ 9.05 µM); MIC [22]: 12.5 µg/mL (≈ 36.2 µM); MIC [23]: < 0.05 µg/mL; MIC [24]: 12.5 µg/mL (≈ 36.2 µM); MIC [25]: 100 µg/mL (≈ 289 µM); MIC [26]: 100 µg/mL (≈ 289 µM)
2 | [C-]#[N+]C12CC3(/C=C/C(=O)OCC(=O)c4ccc(C)cc4)OC3C1O2 (stereo not drawn) [compound 6] | > 100 | 50 (≈ 154 µM) | > 100 | > 100 | 3.13 (≈ 9.62 µM) | < 0.2 | 25 (≈ 76.8 µM) | > 100 | < 100 | 50 (≈ 154 µM) | 0.39 (≈ 1.2 µM) | 0.2 (≈ 0.615 µM) | > 100 | > 100 | > 100 | > 100 | > 100 | > 100 | > 100 | 12.5 (≈ 38.4 µM) | MIC [19]: 0.8 µg/mL (≈ 2.46 µM); MIC [20]: 0.78 µg/mL (≈ 2.4 µM); MIC [21]: 25 µg/mL (≈ 76.8 µM); MIC (Proteus vulgaris OX-19): 1.56 µg/mL (≈ 4.8 µM); MIC (Salmonella typhi 901): 50 µg/mL (≈ 154 µM); MIC [22]: > 100 µg/mL; MIC [23]: 0.39 µg/mL (≈ 1.2 µM); MIC [24]: 100 µg/mL (≈ 307 µM); MIC [25]: > 100 µg/mL; MIC [26]: > 100 µg/mL
